{"source": "paper PMC3742649", "about": "(Endocrine, 2013)", "key": {"[1]": {"target": "T1, novel non-AT1, non-AT2 angiotensin binding site (neurolysin) (Rattus norvegicus, UniProt P42676)", "T1 sequence (P42676 38-704)": "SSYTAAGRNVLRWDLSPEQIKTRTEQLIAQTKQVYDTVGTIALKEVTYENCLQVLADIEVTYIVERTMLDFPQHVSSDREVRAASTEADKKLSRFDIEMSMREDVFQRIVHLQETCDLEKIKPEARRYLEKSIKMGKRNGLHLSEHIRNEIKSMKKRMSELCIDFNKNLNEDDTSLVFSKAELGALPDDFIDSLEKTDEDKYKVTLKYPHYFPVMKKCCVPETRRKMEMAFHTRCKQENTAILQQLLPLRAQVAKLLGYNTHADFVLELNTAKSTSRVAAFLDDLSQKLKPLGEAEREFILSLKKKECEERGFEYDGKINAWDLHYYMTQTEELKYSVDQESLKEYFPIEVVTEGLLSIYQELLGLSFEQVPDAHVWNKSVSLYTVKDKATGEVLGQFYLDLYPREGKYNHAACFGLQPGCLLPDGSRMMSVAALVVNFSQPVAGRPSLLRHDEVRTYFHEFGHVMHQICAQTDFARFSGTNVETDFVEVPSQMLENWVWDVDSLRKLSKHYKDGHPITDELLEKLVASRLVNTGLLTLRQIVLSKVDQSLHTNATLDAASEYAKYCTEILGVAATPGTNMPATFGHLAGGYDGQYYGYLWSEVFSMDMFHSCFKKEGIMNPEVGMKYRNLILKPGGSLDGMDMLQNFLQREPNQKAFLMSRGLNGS", "experiment": "Competition binding of 125I-Sar1,Ile8 Ang II in rat testis membranes", "conditions": "for inhibition of 125I-SI Ang II binding in testis at concentrations up to 1 mM: rat testis"}, "[2]": {"target": "T1, novel non-AT1, non-AT2 angiotensin binding site (neurolysin)", "experiment": "Competition binding of 125I-Sar1,Ile8 Ang II in rat brain membranes", "conditions": "for inhibition of 125I-SI Ang II binding in brain at concentrations up to 1 mM: rat brain"}, "[3]": {"target": "neurolysin", "conditions": "read-out: KI for neurolysin; reported value; cited from earlier work"}, "[4]": {"conditions": "listed as Proline-Isoleucine dipeptide"}}, "note": "“Also recorded” adds a separate entry of the source. Where a SMILES comes first, the peptide text is derived from it."}
{"smiles": "CC[C@H](C)[C@H](NC(=O)[C@H](CCCN=C(N)N)NC(=O)[C@H](CCCN=C(N)N)NC(=O)[C@H](CC(C)C)NC(=O)[C@H](Cc1ccccc1)NC(=O)CNC(=O)CNC(=O)[C@@H](N)Cc1ccc(O)cc1)C(=O)O", "note": "[Dynorphin A (1–8)]", "values": [{"measurement": "IC50", "setting": "[1]", "result": 2200, "unit": "nM"}]}
{"smiles": "CC[C@H](C)[C@H](NC(=O)[C@@H]1CCCN1)C(=O)O", "note": "[Pro-Ile, proline-isoleucine dipeptide] (H-Pro-Ile-OH)", "values": [{"measurement": "inhibition of 125I-SI Ang II binding in brain at concentrations up to 1 mM", "setting": "[2]", "result": "no inhibition; also recorded: failed to inhibit; also recorded: did not inhibit"}, {"measurement": "inhibition of 125I-SI Ang II binding in brain at concentrations up to 1 mM", "setting": "[2]; [4]", "result": "inactive"}, {"measurement": "inhibition of 125I-SI Ang II binding in testis at concentrations up to 1 mM", "setting": "[1]", "result": "no inhibition; also recorded: failed to inhibit; also recorded: did not inhibit"}, {"measurement": "inhibition of 125I-SI Ang II binding in testis at concentrations up to 1 mM", "setting": "[1]; [4]", "result": "inactive"}, {"measurement": "Ki", "setting": "[3]", "result": 90000, "unit": "nM"}]}
{"smiles": "CC[C@H](C)[C@H](NC(=O)[C@@H]1CCCN1C(=O)[C@H](Cc1c[nH]cn1)NC(=O)[C@@H](NC(=O)[C@H](Cc1ccc(O)cc1)NC(=O)[C@@H](NC(=O)[C@H](CCCN=C(N)N)NC(=O)CNC)C(C)C)[C@@H](C)CC)C(=O)O", "note": "[SI Ang II, Sar^1, Ile^8 angiotensin II]", "values": [{"measurement": "IC50", "setting": "[2]; IC50 in brain, rat brain membranes, Figure 1 Panel A", "result": 82.2, "unit": "nM"}, {"measurement": "IC50", "setting": "[1]; IC50 in testis, rat testis membranes, Figure 1 Panel A", "result": 126, "unit": "nM"}]}
